Read-outs that look alike come from different tables or passages of the source.
Assays:
E. coli LptB2FGC = target: T1, E. coli LptB2FGC (Escherichia coli, UniProt P0ADC6+P0AF98); assay: LPS-release assay, proteoliposomes to LptA; type: biochemical; details: E. coli LptB2FGC proteins
T1 construct: made in house; host or cells: E. coli C43(λDE3)
Procedure: The levels of release of LPS from proteoliposomes to LptA were measured as previously described. Assays used 60% proteoliposomes (by volume) in a solution containing 50 mM Tris-HCl (pH 8.0), 500 mM NaCl, 10% glycerol and 2 µM LptA^I36pBPA. Reaction mixtures were incubated with drug for 10 min at room temperature, as applicable. Reactions were then initiated by the addition of ATP and MgCl2 (final concentrations of 5 mM and 2 mM, respectively) and proceeded at 30 °C. Aliquots (25 µl) were removed from the reaction mixtures and irradiated with ultraviolet light (365 nm) on ice for 10 min using a B-100AP lamp (Thermo Fisher Scientific). After ultraviolet irradiation, 25 µl 2× SDS–PAGE sample loading buffer was added, the samples were boiled for 10 min and proteins were separated using Tris-HCl 4–20% polyacrylamide gradient gels with Tris-glycine running buffer. Immunoblotting was conducted as described above.

T1 sequence (P0AF98 whole entry): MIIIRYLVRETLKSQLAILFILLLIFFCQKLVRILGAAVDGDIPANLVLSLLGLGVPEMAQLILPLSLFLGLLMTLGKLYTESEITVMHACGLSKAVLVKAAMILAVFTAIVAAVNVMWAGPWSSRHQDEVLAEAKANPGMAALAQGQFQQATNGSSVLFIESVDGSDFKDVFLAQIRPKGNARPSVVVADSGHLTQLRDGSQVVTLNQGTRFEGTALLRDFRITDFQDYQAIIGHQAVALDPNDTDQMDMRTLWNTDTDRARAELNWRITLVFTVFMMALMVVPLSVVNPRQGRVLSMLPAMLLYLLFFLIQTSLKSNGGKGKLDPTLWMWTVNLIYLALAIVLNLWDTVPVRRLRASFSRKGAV
T1 sequence (P0ADC6 whole entry): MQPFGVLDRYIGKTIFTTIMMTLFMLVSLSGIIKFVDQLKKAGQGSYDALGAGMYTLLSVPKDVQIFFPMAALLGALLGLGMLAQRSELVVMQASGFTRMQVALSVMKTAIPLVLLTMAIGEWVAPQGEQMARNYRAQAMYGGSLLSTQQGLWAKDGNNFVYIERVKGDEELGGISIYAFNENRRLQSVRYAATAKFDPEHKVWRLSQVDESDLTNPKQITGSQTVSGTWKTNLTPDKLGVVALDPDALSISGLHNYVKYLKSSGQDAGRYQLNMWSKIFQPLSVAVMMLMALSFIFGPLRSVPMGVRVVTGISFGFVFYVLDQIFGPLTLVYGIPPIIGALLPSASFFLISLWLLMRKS
T1 sequence (P0A9V1 whole entry partner): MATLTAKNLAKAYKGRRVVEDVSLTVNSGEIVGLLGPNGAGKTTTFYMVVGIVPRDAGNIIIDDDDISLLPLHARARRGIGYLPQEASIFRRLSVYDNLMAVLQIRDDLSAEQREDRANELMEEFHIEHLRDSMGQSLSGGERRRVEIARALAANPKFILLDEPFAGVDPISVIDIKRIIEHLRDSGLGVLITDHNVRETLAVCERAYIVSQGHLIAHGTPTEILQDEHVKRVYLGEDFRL
T1 sequence (P0ADV9 whole entry partner): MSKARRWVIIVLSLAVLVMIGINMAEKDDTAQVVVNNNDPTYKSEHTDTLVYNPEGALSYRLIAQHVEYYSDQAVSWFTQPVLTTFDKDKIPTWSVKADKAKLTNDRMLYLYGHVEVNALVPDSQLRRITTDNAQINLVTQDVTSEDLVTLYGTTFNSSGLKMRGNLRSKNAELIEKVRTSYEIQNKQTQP

CN1C(=O)[C@H](CCCCN)NC(=O)[C@H](CCCN)NCc2cccnc2Sc2cccc(-c3ccc(C(=O)O)cc3)c2CNC(=O)[C@@H]1Cc1c[nH]c2ccccc12 [zosurabalpin]
LPS extraction to LptA (E. coli LptB2FGC): no effect on LPS extraction | MIC_WT (A. baumannii; A. baumannii ATCC 17978, wild type (parental strain)): 0.06 µM | MIC_WT (A. baumannii; A. baumannii ATCC 19606, wild type (parental strain)): 0.25 µM | MIC_WT (A. baumannii; A. baumannii ROB08705, wild type (parental strain)): 0.13 µM | MIC_WT (A. baumannii; A. baumannii ROB08706, wild type (parental strain)): 1.0 µM | MIC_value (A. baumannii; ATCC 17978 clone 1D1, run AB17978_3280_HS, evolved in HS/MHB): 128 µM | MIC_value (A. baumannii; ATCC 17978 clone 1D3, run AB17978_3280_HS, evolved in HS/MHB): 128 µM | MIC_value (A. baumannii; ATCC 17978 clone 1E3, run AB17978_3280_MHB, evolved in MHB): 16 µM | MIC_value (A. baumannii; ATCC 17978 clone 1F1, run AB17978_3280_MHB, evolved in MHB): >128 µM | MIC_value (A. baumannii; ATCC 17978 clone 2C1, run AB17978_3280_HS, evolved in HS/MHB): 16 µM | MIC_value (A. baumannii; ATCC 17978 clone 2C1, run AB17978_3280_MHB, evolved in MHB): 2 µM | MIC_value (A. baumannii; ATCC 17978 clone 2C2, run AB17978_3280_HS, evolved in HS/MHB): 8 µM | MIC_value (A. baumannii; ATCC 17978 clone 2C3, run AB17978_3280_HS, evolved in HS/MHB): 4 µM | MIC_value (A. baumannii; ATCC 17978 clone 2C4, run AB17978_3280_MHB, evolved in MHB): 8 µM | MIC_value (A. baumannii; ATCC 17978 clone 2D2, run AB17978_3280_MHB, evolved in MHB): 8 µM | MIC_value (A. baumannii; ATCC 17978 clone 2D3, run AB17978_3280_HS, evolved in HS/MHB): 32 µM | MIC_value (A. baumannii; ATCC 17978 clone 3D1, run AB17978_3280_HS, evolved in HS/MHB): 32 µM | MIC_value (A. baumannii; ATCC 17978 clone 4D1, run AB17978_3280_MHB, evolved in MHB): 64 µM | MIC_value (A. baumannii; ATCC 17978 clone 5B1, run AB17978_3280_HS, evolved in HS/MHB): 1 µM | MIC_value (A. baumannii; ATCC 17978 clone 5C1, run AB17978_3280_HS, evolved in HS/MHB): 64 µM | MIC_value (A. baumannii; ATCC 17978 clone 5E1, run AB17978_3280_MHB, evolved in MHB): >32 µM | MIC_value (A. baumannii; ATCC 17978 clone 6E1, run AB17978_3280_HS, evolved in HS/MHB): 32 µM | MIC_value (A. baumannii; ATCC 17978 clone 6E1, run AB17978_3280_MHB, evolved in MHB): 4 µM | MIC_value (A. baumannii; ATCC 17978 clone 6E2, run AB17978_3280_HS, evolved in HS/MHB): 16 µM | MIC_value (A. baumannii; ATCC 17978 clone 6E3, run AB17978_3280_HS, evolved in HS/MHB): 32 µM | MIC_value (A. baumannii; ATCC 17978 clone 6E4, run AB17978_3280_HS, evolved in HS/MHB): 32 µM | MIC_value (A. baumannii; ATCC 17978 clone 6E4, run AB17978_3280_MHB, evolved in MHB): 8 µM | MIC_value (A. baumannii; ATCC 17978 clone 6E5, run AB17978_3280_HS, evolved in HS/MHB): 32 µM | MIC_value (A. baumannii; ATCC 17978 clone 6E6, run AB17978_3280_HS, evolved in HS/MHB): 8 µM | MIC_value (A. baumannii; ATCC 17978 clone 6E9, run AB17978_3280_HS, evolved in HS/MHB): 8 µM | MIC_value (A. baumannii; ATCC 19606 clone 1C2, run AB19606_3280_HS, evolved in HS_MHB): 8 µM | MIC_value (A. baumannii; ATCC 19606 clone 1C3, run AB19606_3280_HS, evolved in HS_MHB): 16 µM | MIC_value (A. baumannii; ATCC 19606 clone 1C4, run AB19606_3280_HS, evolved in HS_MHB): 8 µM | MIC_value (A. baumannii; ATCC 19606 clone 2C1, run AB19606_3280_HS, evolved in HS_MHB): 64 µM | MIC_value (A. baumannii; ATCC 19606 clone 2C3, run AB19606_3280_HS, evolved in HS_MHB): 64 µM | MIC_value (A. baumannii; ATCC 19606 clone 2C6, run AB19606_3280_HS, evolved in HS_MHB): 16 µM | MIC_value (A. baumannii; ATCC 19606 clone 2E1, run AB19606_3280_MHB, evolved in MHB): 16 µM | MIC_value (A. baumannii; ATCC 19606 clone 2E2, run AB19606_3280_MHB, evolved in MHB): 16 µM | MIC_value (A. baumannii; ATCC 19606 clone 2E3, run AB19606_3280_MHB, evolved in MHB): 8 µM | MIC_value (A. baumannii; ATCC 19606 clone 2E6, run AB19606_3280_MHB, evolved in MHB): 16 µM | MIC_value (A. baumannii; ATCC 19606 clone 3D1, run AB19606_3280_MHB, evolved in MHB): 2 µM | MIC_value (A. baumannii; ATCC 19606 clone 3F1, run AB19606_3280_MHB, evolved in MHB): 64 µM | MIC_value (A. baumannii; ATCC 19606 clone 4C1, run AB19606_3280_HS, evolved in HS_MHB): 4 µM | MIC_value (A. baumannii; ATCC 19606 clone 4C2, run AB19606_3280_HS, evolved in HS_MHB): 16 µM | MIC_value (A. baumannii; ATCC 19606 clone 4C7, run AB19606_3280_HS, evolved in HS_MHB): 64 µM | MIC_value (A. baumannii; ATCC 19606 clone 5C4, run AB19606_3280_HS, evolved in HS_MHB): 32 µM | MIC_value (A. baumannii; ATCC 19606 clone 5E2, run AB19606_3280_HS, evolved in HS_MHB): 16 µM | MIC_value (A. baumannii; ATCC 19606 clone 5E3, run AB19606_3280_HS, evolved in HS_MHB): 8 µM | MIC_value (A. baumannii; ATCC 19606 clone 5E5, run AB19606_3280_HS, evolved in HS_MHB): <2 µM | MIC_value (A. baumannii; ATCC 19606 clone 5E6, run AB19606_3280_HS, evolved in HS_MHB): 16 µM | MIC_value (A. baumannii; ATCC 19606 clone 5E7, run AB19606_3280_HS, evolved in HS_MHB): 8 µM | MIC_value (A. baumannii; ATCC 19606 clone 5F1, run AB19606_3280_MHB, evolved in MHB): >128 µM | MIC_value (A. baumannii; ATCC 19606 clone 5F2, run AB19606_3280_MHB, evolved in MHB): 16 µM | MIC_value (A. baumannii; ATCC 19606 clone 5F3, run AB19606_3280_MHB, evolved in MHB): 16 µM | MIC_value (A. baumannii; ATCC 19606 clone 6E1, run AB19606_3280_HS, evolved in HS_MHB): 8 µM | MIC_value (A. baumannii; ROB08705 clone 1C1, run ABR05_3280_HS, evolved in HS_MHB): 4 µM | MIC_value (A. baumannii; ROB08705 clone 2C1, run ABR05_3280_MHB, evolved in MHB): >32 µM

Source: PMC10794144, “A novel antibiotic class targeting the lipopolysaccharide transporter” (Nature, 2024)
